Measurements from publication PMC9176691, “Design, synthesis and biological evaluation of novel diosgenin–benzoic acid mustard hybrids with potential anti-proliferative activities in human hepatoma HepG2 cells” (Journal of Enzyme Inhibition and Medicinal Chemistry, 2022).
Like-named read-outs stand apart in the source and are kept apart here.

Tests used:
HeLa cells = test: MTT anti-proliferative assay, HeLa; type: cell-based; details: Homo sapiens, read-out: IC50 HeLa
HepG2 cells = test: MTT anti-proliferative assay, HepG2; type: cell-based, human; details: read-out: IC50 HepG2
MCF-7 cells = test: MTT anti-proliferative assay, MCF-7; type: cell-based, human; details: Homo sapiens, read-out: IC50 MCF-7
GES-1 cells = test: MTT cytotoxicity assay, normal GES-1; type: cell-based, human; details: for IC50: Homo sapiens, read-out: IC50 GES-1
[1] = MTT, 48 h treatment, average ± SD of three independent experiments

| Structure (SMILES) | IC50 (HeLa cells; 48 h) | IC50 (HepG2 cells; Homo sapiens, HepG2, 48 h) | IC50 (MCF-7 cells; MCF7, 48 h) | SI (GES-1 cells) | IC50 (GES-1 cells; GES1, 48 h) | IC50 (HeLa cells; [1]) | IC50 (HepG2 cells; Homo sapiens, HepG2, 48 h, MTT, 48 h treatment, average ± SD of three independent experiments) | IC50 (HepG2 cells; [1]) | IC50 (MCF-7 cells; MCF7, MTT, 48 h treatment, average ± SD of three independent experiments) | IC50 (GES-1 cells; GES1, MTT, 48 h treatment, normal gastric epithelial cells, average ± SD of three independent experiments) | SI (GES-1 cells; SI = IC50 for GES-1 cell line/IC50 for HepG2 cell line) |
| --- | --- | --- | --- | --- | --- | --- | --- | --- | --- | --- | --- |
| CO[C@@]12[C@H](COC(N)=O)C3=C(C(=O)C(C)=C(N)C3=O)N1C[C@@H]1N[C@@H]12 [Mitomycin C, reference compound] | 22 ± 1.12 µM | 32.6 ± 1.22 µM | 16.7 ± 1.02 µM | 0.72 | 23.4 ± 1.11 µM |  |  |  |  |  |  |
| C[C@H](CC[C@H]1OC2C[C@H]3[C@@H]4CC=C5C[C@@H](OC(=O)c6ccc(N(CCCl)CCCl)cc6)CC[C@]5(C)C4CC[C@]3(C)C2[C@@H]1C)COC(=O)c1ccc(N(CCCl)CCCl)cc1 (stereo partly drawn) [Compound 9, (22 R,25R)-3β-((4-(bis(2-chloroethyl)amino)benzoyl)oxy)-5-en-furostan-26–4-(bis(2-chloroethyl)amino) benzoate] | > 50 µM | > 50 µM | > 50 µM |  | > 100 µM |  |  |  |  |  |  |
| CC(CCC1OC2CC3C4CC=C5CC(O)CCC5(C)C4CCC3(C)C2C1C)C(=O)NCCNC(=O)c1ccc(N(CCCl)CCCl)cc1 [Compound 15a, (22 R,25R)-(2-aminoethyl-4-(bis(2-chloroethyl)amino)benzamido)-3β-hydroxy-5-en-furostan-26-amide] | > 50 µM | 13.2 ± 1.01 µM | > 100 µM | 6.28 | 83.2 ± 3.12 µM |  |  |  |  |  |  |
| CC(CCC1OC2CC3C4CC=C5CC(O)CCC5(C)C4CCC3(C)C2C1C)C(=O)NCCCNC(=O)c1ccc(N(CCCl)CCCl)cc1 [Compound 15b, (22 R,25R)-(3-aminopropyl-4-(bis(2-chloroethyl)amino)benzamido)-3β-hydroxy-5-en-furostan-26-amide] | 49.8 ± 2.13 µM | 14 ± 1.15 µM | 37.2 ± 2.23 µM | >7.14 | > 100 µM |  |  |  |  |  |  |
| C[C@@H]1CC[C@@]2(OC1)O[C@H]1C[C@H]3[C@@H]4CC=C5C[C@@H](O)CC[C@]5(C)[C@H]4CC[C@]3(C)[C@H]1[C@@H]2C [Diosgenin] |  |  |  |  |  | 55.1 ± 2.11 µM | 32.6 µM | 33.9 ± 1.37 µM | 23.9 ± 1.34 µM | > 100 µM | >2.95 |
| CC(CCC1OC2CC3C4CC=C5CC(O)CCC5(C)C4CCC3(C)C2C1C)C(=O)N1CCCN(C(=O)c2ccc(N(CCCl)CCCl)cc2)CC1 [Compound 15f, (22 R,25R)-(4–(1-homopiperazinyl)-4-(bis(2-chloroethyl)amino)benzamido)-3β-hydroxy-5-en-furostan-26-amide] | > 50 µM | 18.9 ± 0.93 µM | > 100 µM | >5.28 | > 100 µM |  |  |  |  |  |  |
| CC(=O)OC1CCC2(C)C(=CCC3C2CCC2(C)C3CC3OC(CCC(C)C(=O)NCCNC(=O)c4ccc(N(CCCl)CCCl)cc4)C(C)C32)C1 [Compound 14a, (22 R,25R)-(2-aminoethyl-4-(bis(2-chloroethyl)amino)benzamido)-3β-acetoxy-5-en-furostan-26-amide] | 17.2 ± 2.81 µM | 10.2 ± 1.01 µM | 48.3 ± 2.21 µM |  | > 100 µM |  |  |  |  |  |  |
| CC(=O)OC1CCC2(C)C(=CCC3C2CCC2(C)C3CC3OC(CCC(C)C(=O)N4CCN(C(=O)c5ccc(N(CCCl)CCCl)cc5)CC4)C(C)C32)C1 [Compound 14e, (22 R,25R)-(1-piperazinyl-4-(bis(2-chloroethyl)amino)benzamido)-3β-acetoxy-5-en-furostan-26-amide] | > 50 µM | 19.3 ± 1.29 µM | 42.7 ± 2.25 µM | 3.05 | 58.8 ± 1.34 µM |  |  |  |  |  |  |
| CC(CCC1OC2CC3C4CC=C5CC(O)CCC5(C)C4CCC3(C)C2C1C)C(=O)N1CCN(C(=O)c2ccc(N(CCCl)CCCl)cc2)CC1 [Compound 15e, (22 R,25R)-(1-piperazinyl-4-(bis(2-chloroethyl)amino)benzamido)-3β-hydroxy-5-en-furostan-26-amide] | 28.5 ± 2.13 µM | 14 ± 1.12 µM | > 50 µM |  | > 100 µM |  |  |  |  |  |  |
| C[C@H](CC[C@H]1OC2C[C@H]3[C@@H]4CC=C5C[C@@H](O)CC[C@]5(C)C4CC[C@]3(C)C2[C@@H]1C)COC(=O)c1ccc(N(CCCl)CCCl)cc1 (stereo partly drawn) [Compound 8, (22 R,25R)-3β-hydroxy-5-en-furostan-26–4-(bis(2-chloroethyl)amino)benzoate] | > 50 µM | > 50 µM | > 50 µM |  | > 100 µM |  |  |  |  |  |  |
| CC(=O)OC1CCC2(C)C(=CCC3C2CCC2(C)C3CC3OC(CCC(C)C(=O)NCCCNC(=O)c4ccc(N(CCCl)CCCl)cc4)C(C)C32)C1 [Compound 14b, (22 R,25R)-(3-aminopropyl-4-(bis(2-chloroethyl)amino)benzamido)-3β-acetoxy-5-en-furostan-26-amide] | > 100 µM | 25.3 ± 1.4 µM | 30.3 ± 2.08 µM | 1.86 | 47 ± 2.34 µM |  |  |  |  |  |  |
| CC(=O)O[C@H]1CC[C@@]2(C)C(=CC[C@@H]3C2CC[C@]2(C)C4C(C[C@@H]32)O[C@H](CC[C@@H](C)COC(=O)c2ccc(N(CCCl)CCCl)cc2)[C@H]4C)C1 (stereo partly drawn) [Compound 10, (22 R,25R)-3β-acetoxy-5-en-furostan-26–4-(bis(2-chloroethyl)amino)benzoate] | > 50 µM | > 50 µM | 28.1 ± 1.52 µM |  | > 100 µM |  |  |  |  |  |  |
